Where only a bound is given, the exact number is not on record here.

As usually defined, the melting point is the temperature of the solid-liquid transition. With `OC[C@H]1OC[C@@H](n2cnc3cc(Cl)c(Cl)cc32)C[C@@H]1O`, the melting point came out at 197 °C. `C[C@@H]1NC(=O)c2cccc([N+](=O)[O-])c2N[C@H]1C` (relative stereo) registered a melting point of 170 °C. The figure for `O=C(NOC(=O)c1ccccc1)OCc1ccccc1` is 112 °C; for `O=C(NNC(=O)C(Cl)(Cl)Cl)c1cccc(Cl)c1` it is 143 to 144 °C; for `COC(=O)NN=C(C)c1cc(Cl)ccc1NS(=O)(=O)C(F)(F)F` it is 211 to 214 °C.

In turn, `CCc1nccn1-c1nc(-c2ccc(Cl)cc2)c(CCCOc2ccccc2C)o1` displayed a melting point of 91 to 92 °C. As for `CC(CNS(=O)(=O)c1ccc(-c2ccccn2)s1)N1CCC(Oc2ccc(F)c(F)c2)CC1` (centres undefined), the melting point was in the range of 153 to 154 °C. `CCC(=O)Nc1ccccc1-c1nc2ccccc2[nH]1` came in with a melting point above 200 °C.

`Oc1ccc(-c2cccc(Cl)c2)cc1`: the melting point fell in the range of 98 to 101 °C. For the compound `CC(C)CCCCNC(=O)n1sc2ccccc2c1=O`, the melting point fell in the range of 49 to 51 °C. As to `O=C(Nc1ccccc1)O[C@@H]1CN=C(c2ccccc2F)O[C@H]1c1ccccc1` (racemic), the melting point is 128 °C. In turn, `OCCc1cn2ccccc2n1` registered a melting point of 120 to 127 °C. `COc1ncc(OC)c(Cl)n1`: the melting point fell in the range of 78 to 80 °C.

For `CC12CC(=O)C3C(CCC4CC(O)CCC43C)C1CCC2C(=O)CSc1ccccn1` (centres undefined), the melting point was found to be 184 °C.

Compound `COc1ccc(CNC(=O)c2c(-c3ccncc3)c(-c3ccc(F)cc3)nn2C)cc1` had a melting point of 162 to 165 °C. For the compound `COc1cc2c(cc1OC)CC(NCC(=O)O)C2`, the melting point was 250 °C.

For the compound `CC1(C)Oc2ccc(OC(F)(F)F)cc2[C@@H](NC(=O)c2ccco2)[C@@H]1O` (relative stereo), the melting point was 146 to 147 °C. The figure for `CN1C(C)(C)CC(O)CC1(C)C` is 70 to 71 °C; for `CCCC(=O)NN=C(c1ccc(Cl)cc1)c1ccc(OC(F)F)cc1` it is 114 to 125 °C. `O=C(Oc1c(F)c(F)c(F)c(F)c1F)c1ccc(F)c(F)c1Nc1ccc(I)cc1Cl`: the melting point was 108 to 110 °C. `O=C(CCl)NCc1c(O)ccc2c1CCCC2=O`: the melting point lay within 196 to 199 °C. To `O=C1N(Cc2ccc(C(F)(F)F)o2)c2ccccc2C12COc1cc3c(nc12)OCO3` (centres undefined) belongs 175 to 177 °C; to `COc1ccc(C(C)(C)C)cc1S(=O)(=O)Cl`, 75 to 77 °C. The compound `Cc1ccc(-n2ncc(C(=O)Nc3ccc(N4CCC(N5CCOCC5)CC4)c(C#N)c3)c2C)cc1` showed a melting point of 243 °C. `S=c1[nH]c(-c2ccccc2)c(-c2ccccc2)n1Nc1cccc(Cl)c1` registered a melting point of 178 to 180 °C.

For the compound `N#CS/C=C\C(=O)OCc1ccccc1`, the melting point fell in the range of 48.5 to 50.5 °C. For `Nc1c(Br)cc(O)c2c1C(=O)c1ccccc1C2=O`, the melting point lay in the range of 226 to 228 °C. Take `CC(C)=Cc1ccc(-c2c(C(C)C)ccc(CO)c2C(C)C)nc1`: the melting point was in the range of 93 to 95 °C. In turn, `CCCCc1nn(-c2ccccc2Cl)c(=O)n1Cc1ccc(-c2ccccc2S(N)(=O)=O)cc1` came in with a melting point of 140 to 142 °C. To `c1cncc(-c2cccn3cnnc23)c1` belongs 186 to 189 °C; to `CC(C)(C)OC(=O)CCc1ccnc(-c2nc(=O)c3ccc(F)cc3s2)c1`, 138 °C. To `CCOC(=O)c1cn(-c2ccccc2)c2occc2c1=O` belongs 168 to 170 °C.

With `CN(C)Cc1ccc(-c2ccc(S(=O)(=O)n3ccc(C=CC(=O)NO)c3)cc2)cc1`, the melting point was 216 to 217 °C. The figure for `CCOc1cc(N)c(Cl)cc1C(=O)NC1CCN(CC2CCN(C(=O)N(C)C)CC2)CC1` is 203 to 205 °C. For `CCC(O)C1C(N2CCN(C)CC2)=Nc2ccccc2N=C1N1CCN(C)CC1` (centres undefined), the melting point was in the range of 163 to 166 °C. The figure for `CN1C(C)(C)CC(CO)CC1(C)C` is 84 to 85 °C; for `COC(=O)c1ccc2oc3c(c(=O)c2c1)CCC3=Cc1cccc(C)n1` it is 200 to 202 °C; for `COc1ccc(N)c(CS(=O)(=O)c2ccccc2)c1` it is 110 to 111 °C. The figure for `CCC(Oc1cccc([N+](=O)[O-])c1Cl)C1=NCCN1` (centres undefined) is 100 to 103 °C; for `O=C(NC(=O)c1c(F)cccc1F)Nc1ccc(S(=O)(=O)C(F)(F)C(F)F)cc1F` it is 186 to 187 °C; for `NCCCOc1cccc2[nH]c3ccccc3c12` it is 146 to 147 °C.

Regarding `Cc1ccc(-c2c(C#N)c(CC(C)C)nc3ccc(OCc4ccccc4)cc23)cc1`, the melting point lay within 137 to 138 °C.

The compound `O=C(Nc1ccccc1)N1CCc2cc(S(=O)(=O)N3CC(c4ccccc4)NC3=O)ccc21` (centres undefined) showed a melting point of 247 to 248 °C. In turn, `O=C1Nc2ccc([N+](=O)[O-])cc2C1c1ncnc2nn(C3CCCCC3)cc12` (centres undefined) registered a melting point of 301 to 304 °C. As to `CONC(=N)c1nc(Cl)c(-c2c(F)cc(F)cc2F)c(N2CCCO2)n1`, the melting point fell in the range of 192 to 193 °C. To `Nc1ncc(-c2cccc(F)c2)nc1C(=O)Nc1cccnc1` belongs 234 to 238 °C; to `CCNc1cc(N2CCN(C(=O)OC(C)(C)C)CC2)c(F)cc1[N+](=O)[O-]`, 129 to 131 °C. For the compound `CCCNC(=O)[C@@H](C)NC(=O)OCc1ccccc1`, the melting point fell in the range of 116 to 120 °C. The compound `COc1cc(C(=O)NS(=O)(=O)c2ccccc2C)ccc1Cc1cn(C(C)C)c2ccc(CCCC(=O)N(C)C)cc12` returned a melting point of 60 °C.

Turning to `COC(=O)c1ccc(OCCCN(C(=O)CCC(=O)Nc2ccc(Cl)cc2)c2ccc(Cl)cc2)cc1`, the melting point is 128 to 130 °C. To `CC(C)n1cnc(-c2ccc(F)cc2)c1-c1ccncc1` belongs 179 to 180 °C; to `CCS(=O)(=O)Nn1c(=O)[nH]c2cc(C(F)(F)F)c(-n3cnnc3)cc2c1=O`, 185 to 195 °C; to `CN1CCN(CC(O)COc2cccc3ccccc23)CC1` (centres undefined), 73 to 74 °C. Compound `O=C1N(CCCCN2CCN(C3=NS(=O)(=O)c4ccccc43)CC2)CSC12CCCC2` displayed a melting point of 137 to 140 °C. Turning to `CCOc1ccc(C23CNCC2C3)cc1` (centres undefined), the melting point is 48 to 49 °C. Take `CCn1c(Oc2cccc(N3CCC(O)CC3)c2)nnc1[C@@H](C)NS(=O)(=O)c1ccc(Cl)c(Cl)c1`: the melting point lay within 168 to 170 °C. Turning to `CC(C)N=C(NC#N)NCCN1CCC(C(=O)c2ccc(F)cc2)CC1`, the melting point was 158 to 160 °C.

`Nc1ccccc1-c1ncco1` registered a melting point of 31 to 32 °C.

Take `O=C1NCCC1Cc1ccccc1` (centres undefined): the melting point was 112 to 113 °C. Turning to `CCCCNC(=O)[C@H](C)C[C@H](O)[C@H](CC1CCCCC1)NC(=O)[C@H](Cc1cscn1)NC(=O)[C@@H](CC(=O)N1CCN(C)CC1)Cc1ccc(OC)cc1`, the melting point lay within 125 to 126 °C.

For `Cn1ncc(C(=O)O)c1C(=O)Nc1ccn2nc(-c3ccccc3)nc2c1`, the melting point is above 300 °C.

On to `CN(C(=S)c1ccccn1)c1cccc(F)c1`, for which the melting point lay within 100 to 103 °C. `CCN(CC)CCNC(=O)c1cc(Cl)c(N)cc1OCCCS(C)=O` (centres undefined): the melting point is 116 to 117 °C. In turn, `OC1c2cc(OCc3ccc4ccccc4n3)ccc2OCC1Oc1cccnc1` (centres undefined) returned a melting point of 126 to 128 °C.

Take `Cn1c(-c2ccccc2F)nnc1S(C)=O` (centres undefined): the melting point fell in the range of 95 to 97 °C. For the compound `CS(=O)(=O)N(c1cc(F)c(F)cc1C#N)S(C)(=O)=O`, the melting point turned out to be 144 °C. On to `CC(=O)SCCC1(C)C(=O)N2CCCC(C(=O)O)N2C1=O` (centres undefined), for which the melting point fell in the range of 142 to 143 °C. Take `COc1cc(CN2CCN(C[C@@H](C)O)CC2)ccc1-c1nc2c(N[C@H]3[C@@H](C(N)=O)[C@@H]4C=C[C@H]3C4)c(Cl)cnc2[nH]1`: the melting point lay in the range of 157 to 159 °C. For `CC1OC(c2ccccc2Cl)c2cc(Cl)ccc2NC1=O` (centres undefined), the melting point was 214 to 215 °C. To `CN(O)C(=O)Nc1ccc(S(C)(=O)=O)cc1` belongs 198 °C; to `CCNC(=O)Nc1nc2ccc(Cc3ccccn3)cc2s1`, 184 to 185 °C; to `CCOC(=O)c1cnc2ccc3nc(S(C)(=O)=O)sc3c2c1Cl`, 170 to 179 °C. In turn, `Cc1ccncc1-c1cccc(OC2SCC(O)C(O)C2O)c1` (centres undefined) yielded a melting point of 143 °C.

`CCn1ncc(OCc2ccc([Si](C)(C)C)cc2)c(Cl)c1=O` gave a melting point of 122 to 125 °C. In turn, `CCCCCCCCOc1ccc(-n2nc3ccc(C(F)(F)F)cc3n2)c(O)c1` yielded a melting point of 79 to 81 °C. For `COc1cccc(-c2nn(C)c3ccsc23)c1`, the melting point was 99 to 101 °C.

`CS(=O)c1ccc(-c2nn(CC3CC3)c(=O)cc2-c2ccc(F)cc2)cc1` (centres undefined) gave a melting point of 133 to 134 °C. In turn, `CS(=O)(=O)c1ccc(-c2cnn(CC(F)(F)F)c(=O)c2Sc2ccc(F)cc2)cc1` had a melting point of 182 to 185 °C. The figure for `CCOC(=O)Nc1ccc(C(C)C(O)(Cn2cncn2)c2ccc(F)cc2F)cn1` (centres undefined) is 167 to 168 °C; for `COc1cc(N)c(Cl)cc1C(=O)NCC1CCN(CCCCCC(=O)c2ccc(Cl)c(Cl)c2)CC1` it is 203 to 205 °C.

`Cc1nc(C)c(Cl)c(NCc2nccc(SCCCSCc3ccncc3)c2C)n1`: the melting point is 124 to 125 °C. To `O=C(CC1CCN(Cc2ccccc2)CC1)c1ccc(CO)cc1` belongs 154 to 155 °C; to `COc1cc(N)ccc1N1CCN(CCCNc2c(C)c(=O)n(C)c(=O)n2C)CC1`, 146 to 148 °C; to `CCOc1nc(C(F)(F)F)cc(=O)n1-c1cc(OC(C)C)c(Br)cc1F`, 106 to 108 °C.

`CCc1nn(C(=O)Oc2ccccc2)c(=O)n1C` showed a melting point of 141 °C. Regarding `CC1CN(c2cc3c(cc2F)C(=O)c2nc4ccccc4c(=O)n2-3)CCN1C(=O)OC(C)(C)C` (centres undefined), the melting point lay within 234 to 237 °C. As to `O=C1NC(=O)C(F)(c2ccccc2)CO1` (centres undefined), the melting point fell in the range of 115 to 117 °C. As to `O=C(O)CCSC(=S)Nc1ccc(Oc2ccc([N+](=O)[O-])cc2)cc1`, the melting point stood at 146 °C. Turning to `COC(=O)c1nc(-c2cc(F)c([Si](C)(C)C)cc2F)c(F)c(N)c1OC`, the melting point fell in the range of 137 to 139 °C.

Source of the values: a melting point compilation (Tetko et al.; mined from patent text by program, amines drawn as free bases though some values may be those of a salt).
